# Literature values in patent US11053214B2, “Compositions and methods related to pyridinoylpiperidine 5-HT1F agonists” (COLUCID PHARMACEUTICALS, INC., priority 2016, dated 2021).
# Key:
# [1] = system: other 5-HT1 receptor subtypes
# rabbit saphenous vein = conditions: concentrations up to 0.1 mM
# migraine = conditions: early clinical proof-of-concept study
SMILES,affinity higher for 5-HT1F receptors than for other 5-HT1 receptor subtypes [1],constriction of rabbit saphenous vein (rabbit saphenous vein),efficacy in the acute treatment of migraine (migraine)
"CN1CCC(C(=O)c2cccc(NC(=O)c3c(F)cc(F)cc3F)n2)CC1.O=C(O)CCC(=O)O [Compound I, hemisuccinate salt of 2,4,6-trifluoro-N-[6-(1-methyl-piperidine-4-carbonyl)-pyridin-2-yl]-benzamide]",more than 450 fold,did not constrict,
CN1CCC(c2c[nH]c3ccc(NC(=O)c4ccc(F)cc4)cc23)CC1 [LY334370],,,proved effective
